# Reference: patent US6407104B1, “Pyrrolo[1,2-a]pyrazine spla2 inhibitor” (Shionogi & Co., Ltd., priority 1998, dated 2002)
# Legend:
# [1] = biological target: T1, recombinant human secretory phospholipase A2 (Homo sapiens, UniProt P14555); experiment: Inhibition Test of Human Secretory Phospholipase A2 (chromogenic assay); format: biochemical; conditions: sPLA2 50 ng/well, 40° C., 30 minutes, OD 405 nm, 96 well microtiterplate
# T1 sequence (P14555 21-144): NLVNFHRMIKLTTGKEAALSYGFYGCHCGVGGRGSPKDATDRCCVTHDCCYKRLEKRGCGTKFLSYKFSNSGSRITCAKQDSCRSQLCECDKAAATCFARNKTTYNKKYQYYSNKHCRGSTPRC
# Excerpt: Test Example: Inhibition Test of Human Secretory Phospholipase A2
# In order to identify and evaluate an inhibitor of recombinant human secretory phospholipase A2, the following chromogenic assay is utilized. The assay herein has been applied for high volume screening wherein 96 well microtiterplate is used. A general explanation for such assay is described in “Analysis of Human Synovial Fluid Phospholipase A2 on Short Chain Phosphatidylcholine-Mixed Micelles: Development of a Spectrophotometric Assay Suitable for a Micortiterplate Reader” (Analytical Biochemistry, 204, pp 190-197, 1992 by Laure. J. Reynolds. Lori L. Hughes and Edward A. Dennis: the disclosure of which is incorporated herein for reference.
# pH 7.5 (adjusted with NaOH)
# pH 4.5 (adjusted with acetic acid)
# 1 mg of sPLA2 is dissolved in 1 ml of an enzyme buffer. Thereafter, the solution is maintained at 4° C.
# In the assay, 5 μl of the solution is diluted with 1995 μl of the reaction buffer to be used.
# 198 mg of 5,5′-dithiobis-2-[…] (manufactured by Wako Pure Chemicals) is dissolved in 100 ml of H2O
# H 7.5 (adjusted with NaOH)
# 100 mg of racemic 1,2-bis(heptanoylthio)-1,2-dideoxy-sn-glycero-3-phospholylcholine is dissolved in 1 ml of chloroform.
# 624.9 mg of Triton-X 100 is dissolved in the reaction buffer.
# Enzyme Reaction: for 1 Plate of Microtiterplate
# 1) 0.106 ml of the substrate solution is put in a centrifugal tube, and nitrogen gas is jetted to remove the solvent. 0.54 ml of Triton-X 100 is added thereto, the mixture is stirred, thereafter it is sonified in a bath type sonification to dissolve. To the resulting product are added 17.8 ml of the reaction buffer and 0.46 ml of DTNB, and 0.18 ml each of the admixture is poured to wells of the 96 well microtiterplate.
# 2) 10 μl of a test compound (or solvent blank) are added in accordance with alignment of plates which has been previously set.
# 3) Incubation is effected at 40° C. for 15 minutes.
# 4) 20μl of an enzyme solution (sPLA2) which has been previously diluted (50 ng/well) are added to start reaction (40° C., 30 minutes).
# 5) Changes in absorbancy for 30 minutes are measured by a plate reader, and inhibition activity was calculated (OD: 405 nm).
# 6) IC50 was determined by plotting log concentration with respect to inhibition values within 10% to 90% inhibiting range.
melting point,IC50 [1],Compound
215 to 217 °C,129 nM,CCc1c(C(=O)C(N)=O)c2c(OCC(=O)OC)nc(C)cn2c1Cc1ccccc1CCc1ccccc1 [Compound I-73]
162 to 163 °C,389 nM,CCc1c(C(=O)C(N)=O)c2c(OCC(=O)OC)nccn2c1CC1CCCCC1 [Compound I-7]
197 to 198 °C,10 nM,CCc1cn2c(Cc3ccccc3)c(CC)c(C(=O)C(N)=O)c2c(OCC(=O)O)n1 [Compound I-42]
216.5 to 218 °C,11 nM,CCc1c(C(=O)C(N)=O)c2c(OCC(=O)O)nc(C)cn2c1Cc1ccc(C)s1 [Compound I-86]
208 to 210 °C,28 nM,CCc1c(C(=O)C(N)=O)c2c(OCC(=O)O)nc(C)cn2c1Cc1ccc(F)cc1F [Compound I-32]
184 to 186 °C,315 nM,CCOC(=O)COc1nc(C)cn2c(Cc3ccc(F)cc3)c(CC)c(C(=O)C(N)=O)c12 [Compound I-89]
134.5 to 136 °C,61 nM,CCc1c(C(=O)C(N)=O)c2c(OCC(=O)OC)nc(C)cn2c1Cc1ccccc1-c1cccs1 [Compound I-51]
144 to 148 °C,194 nM,CCc1c(C(=O)C(N)=O)c2c(OCC(=O)OC)nccn2c1Cc1ccc2ccsc2c1 [Compound I-11]
189 to 191 °C,6 nM,CCc1c(C(=O)C(N)=O)c2c(OCC(=O)O)nc(C)cn2c1Cc1ccccc1CCc1ccccc1 [Compound I-74]
